# How the values were obtained:
# NC/Nga mice = experiment: DNCB-induced atopic dermatitis-like skin lesions; assay type: in vivo, mouse
# Excerpt: Seven-week-old NC/Nga mice were purchased from the Shizuoka Laboratory Animal Center (Shizuoka, Japan) and allowed to adapt to the environment for a week prior to use. The procedures for the induction of atopic dermatitis-like symptoms in mice using 1-chloro-2,4-dinitro-benzene (DNCB) have been well described previously ([27]). Briefly, the dorsal hair of the mice was shaved 2 days before DNCB administration. For the induction of atopic dermatitis, 1% DNCB was applied to the dorsal skin of the mice twice weekly for 7 days and then 0.2% DNCB was applied thrice weekly for 21 days. The mice were divided into the following […] treatment groups (n = 10 per group): 0.3 and 3% Vp2N/day, 0.3 and 3% Vp8N/day, 0.1% dexamethasone/day, and vehicle only, dorsally administered from 9 to 13 weeks of age. As a negative control for atopic dermatitis, NC/Nga mice that were not treated with DNCB were maintained under pathogen-free conditions. Laboratory animal breeding management was based on the “Guide for the Care and Use of Laboratory Animals,” and all experiments were approved by the Institutional Animal Care and Use Committees of Gyeonggi Institute of Science & Technology.
# RBL-2H3 mast cells = experiment: Degranulation assay, histamine release (enzyme immunoassay); assay type: cell-based, rat; conditions: for inhibition of histamine release: PTD-conjugated peptide without SLO (LY294002 as positive control), DNP-IgE sensitized, DNP-BSA stimulation, no A23187 pretreatment, three independent experiments (Figure 2C); for inhibition of histamine release after A23187 pretreatment: cells pretreated with A23187, sensitized with DNP-IgE, then PTD-conjugated peptide (Figure 4B)
# SN23-Syn4-Vp2 complex = biological target: T1, SN23-Syn4-Vp2 complex (Rattus norvegicus, UniProt O70377+P63045+Q08850); experiment: Co-immunoprecipitation of SNARE complexes in activated RBL-2H3 cells, anti-SNAP-23 blot; assay type: cell-based; conditions: peptides added to the medium after A23187 pretreatment; IP of Vp2, blot anti-SNAP-23 (Figure 4C)
# T1 construct: Lysates of RBL-2H3 cells; endogenous in cells; host or cells: RBL-2H3 (ATCC CRL-2256)
# T1 sequence (Q08850 whole entry): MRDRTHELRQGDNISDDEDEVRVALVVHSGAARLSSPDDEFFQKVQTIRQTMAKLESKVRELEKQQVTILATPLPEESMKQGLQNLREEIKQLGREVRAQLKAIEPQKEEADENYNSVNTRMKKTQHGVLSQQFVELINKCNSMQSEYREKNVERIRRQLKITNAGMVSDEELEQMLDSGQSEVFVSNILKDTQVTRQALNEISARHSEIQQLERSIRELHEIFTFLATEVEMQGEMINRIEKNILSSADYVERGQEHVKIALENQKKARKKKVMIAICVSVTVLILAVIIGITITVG
# T1 sequence (O70377 whole entry): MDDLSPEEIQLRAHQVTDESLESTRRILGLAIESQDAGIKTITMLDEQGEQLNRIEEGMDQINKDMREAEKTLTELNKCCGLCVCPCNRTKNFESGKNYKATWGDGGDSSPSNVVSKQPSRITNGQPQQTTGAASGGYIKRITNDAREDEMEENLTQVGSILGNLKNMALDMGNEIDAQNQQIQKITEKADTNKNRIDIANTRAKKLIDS
# T1 sequence (P63045 whole entry): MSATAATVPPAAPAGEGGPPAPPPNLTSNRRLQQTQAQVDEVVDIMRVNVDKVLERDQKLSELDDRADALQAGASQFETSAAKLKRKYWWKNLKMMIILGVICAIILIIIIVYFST
# [1] = system: complexes containing both Syn4 and SN23; experiment: as above; assay type: cell-based, rat; conditions: peptides added to the medium after A23187 pretreatment; co-IP, blot anti-SNAP-23 (Figure 4C)
# Protocol: Lysates of RBL-2H3 cells (0.5–1 × 10^6 cells), which were obtained by the addition of 1 mL lysis buffer (50 mM Tris–HCl, 150 mM NaCl, 1% Triton X-100™, 1 mM EDTA, pH 7.5) supplemented with a protease inhibitor cocktail (Calbiochem®, Merck Millipore, Billerica, MA, USA), were centrifuged at 13,000 g at 4°C to remove cell debris and precleared with 100 µL protein G Sepharose® (GE Healthcare) for 2 h at 4°C. The precleared lysates were incubated with antibodies against SNARE proteins (Syn4, SNAP-23, VAMP2, and VAMP8) for 2 h at 4°C for binding, and then the antibody–antigen complexes were precipitated by incubation with a protein G slurry overnight with constant shaking. After an extensive washing step with lysis buffer, an immunoblotting analysis was performed for the precipitates. The immunoprecipitated proteins and cell lysates were electrophoresed on 12% sodium dodecyl sulfate-polyacrylamide gel electrophoresis gels and then transferred to nitrocellulose blotting membranes (GE Healthcare). After blocking the membranes in TBST (10 mM Tris–HCl, 150 mM NaCl, and 0.05% Tween® 20, pH 8) containing 0.5% BSA and 5% skim milk for 1 h at room temperature, primary anti-SNAP-23 antibody (1:1,000 dilution) in TBST supplemented with 1% BSA and 0.01% sodium azide was added and incubated at 4°C overnight. […]
Sequence,"epidermal thickness (NC/Nga mice; 0.3 and 3% peptide/day dorsally for 4 weeks, n = 10 per group, versus DNCB/vehicle-treated group (Figure 5C))","atopic dermatitis features (acanthosis, hypergranulosis, hyperkeratosis) in hematoxylin and eosin-stained sections (NC/Nga mice; 0.3 and 3% peptide/day dorsally, 9 to 13 weeks of age, n = 10 per group, compared with 0.1% dexamethasone/day group (Figure 5B))","ear thickness (NC/Nga mice; 0.3 and 3% peptide/day or 0.1% dexamethasone/day for 4 weeks, n = 10 per group (Figure 5D))","serum IgE levels (NC/Nga mice; daily dorsal application for 4 weeks, n = 10 per group (Figure 5F))",inhibition of histamine release (RBL-2H3 mast cells),inhibition of histamine release after A23187 pretreatment (RBL-2H3 mast cells),SNARE complex formation in cells (amount of SN23-Syn4-Vp2 complex) (SN23-Syn4-Vp2 complex),amount of complexes containing both Syn4 and SN23 (binary Syn4-SN23 and ternary complexes) [1]
"LQSEVEGVKNIMTQNVE [Vp8N, 17-mer peptide, N-terminal region of VAMP8 SNARE motif]",significantly reduced,clearly alleviated to a similar extent,reduced,significantly reduced,almost equally inhibited the release of both β-hexosaminidase and histamine,inhibited both histamine and β-hexosaminidase release,,
"SARHSEIQQLERTIREL [Syn4N, 17-mer peptide, N-terminal region of syntaxin 4 SNARE motif]",,,,,almost equally inhibited the release of both β-hexosaminidase and histamine,inhibited both histamine and β-hexosaminidase release,reduced,most dramatically reduced
"EDEMEENLTQVGSILGN [SC23N, 17-mer peptide, N-terminal region of SNAP-23 SNARE motif SC23]",,,,,,,reduced,most dramatically reduced

# Source: PMC5904360, “Soluble N-Ethylmaleimide-Sensitive Factor Attachment Protein Receptor-Derived Peptides for Regulation of Mast Cell Degranulation” (Frontiers in Immunology, 2018)
